Laboratory results reported in publication PMC10046961, “High-Throughput Screening Assay for Detecting Drug-Induced Changes in Synchronized Neuronal Oscillations and Potential Seizure Risk Based on Ca^2+ Fluorescence Measurements in Human Induced Pluripotent Stem Cell (hiPSC)-Derived Neuronal 2D and 3D Cultures” (Cells, 2023).
Read-outs that look alike come from different tables or passages of the source. Marks after values point to notes of the source that are not given here.

Columns and labels:
[1] = system: hiPSC-derived neurons co-cultured with human primary astrocytes in 2D; assay: Ca2+ transient oscillation assay (FDSS), 2D co-culture; assay type: cell-based; conditions: for effect on peak number / Ca2+ neuronal oscillations, in words: 2D format; for activation at 11.11 µM / activation at 33.33 µM / activation at 100 µM / activation at 300 µM / activation at 0.11 µM / activation at 0.33 µM / activation at 1 µM / activation at 3 µM: Homo sapiens, 1 h, 60 min
Outline: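 Cultures were 10,000 CW50065 hiPSC excitatory neurons plus 2500 primary human astrocytes per well. Recordings used Cal-520 dye in HBSS/HEPES/glucose at 37 °C, with a 470/540 nm read at 2 Hz. Oscillations were stabilized with 0.04% DMSO, read for 20 min, then read again 60 min after compound addition (final DMSO 0.1%).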

[2] = system: hiPSC-derived neurons co-cultured with human primary astrocytes in 3D; assay: Ca2+ transient oscillation assay (FDSS), 3D spheroids; assay type: cell-based; conditions: for Area under the curve - 3D Mean / Peak Number—3D Mean / Peak amplitude - 3D Mean / Peak width - 3D Mean / Peak-to-peak interval - 3D Mean: 60 min
Outline: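 Fura-2 fluorescence was read twice for 20 min each: a baseline 10 min after 0.04% DMSO, and again 60 min after compound addition at nominal final concentration. The 3D co-cultures (1:1 hiPSC neurons from a donor and human astrocytes, 8000 each) matured 5 weeks in BrainPhys medium after a 1-week differentiation.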

[3] = ref PharmaPendium, cited from earlier work
[4] = read-out: Area under the curve - 2D Mean
[5] = read-out: Peak amplitude - 2D Mean
[6] = read-out: Peak-to-peak interval - 2D Mean
[7] = Table 1, peak plasma concentration in men, free therapeutic Cmax
[8] = Table 2, highest plasma concentration in humans after the therapeutic dose

CC(=O)OCC[N+](C)(C)C [Acetylcholine]
effect on peak number / Ca2+ neuronal oscillations, in words [1]: significantly reduced peak number | activation at 11.11 µM [1, 4]: 38.3% | activation at 11.11 µM ([1]; read-out: Peak Number—2D Mean): 2.4% | activation at 11.11 µM [1, 5]: 11.4% | activation at 11.11 µM ([1]; read-out: Peak width - 2D Mean): 26.2% | activation at 11.11 µM [1, 6]: 28% | activation at 33.33 µM [1, 4]: 19.9% | activation at 33.33 µM ([1]; read-out: Peak Number—2D Mean): -31.5% | activation at 33.33 µM [1, 5]: 2.3% | activation at 33.33 µM ([1]; read-out: Peak width - 2D Mean): 16.2% | activation at 33.33 µM [1, 6]: -25.8% | activation at 100 µM [1, 4]: -1.3% | activation at 100 µM ([1]; read-out: Peak Number—2D Mean): -47.2% | activation at 100 µM [1, 5]: -17% | activation at 100 µM ([1]; read-out: Peak width - 2D Mean): -3.8% | activation at 100 µM [1, 6]: 11.3% | activation at 300 µM [1, 4]: -6.1% | activation at 300 µM ([1]; read-out: Peak Number—2D Mean): -63.5% | activation at 300 µM [1, 5]: -12.8% | activation at 300 µM ([1]; read-out: Peak width - 2D Mean): 2.6% | activation at 300 µM [1, 6]: 45.5% | Area under the curve - 3D Mean ([2]; 11.11 µM): 109.9 % change from baseline | Peak Number—3D Mean ([2]; 11.11 µM): −33.8 % change from baseline | Peak amplitude - 3D Mean ([2]; 11.11 µM): 90.9 % change from baseline | Peak width - 3D Mean ([2]; 11.11 µM): 4.2 % change from baseline | Peak-to-peak interval - 3D Mean ([2]; 11.11 µM): 89.6 % change from baseline | Area under the curve - 3D Mean ([2]; 33.33 µM): 110.9 % change from baseline | Peak Number—3D Mean ([2]; 33.33 µM): −51.6 * % change from baseline | Peak amplitude - 3D Mean ([2]; 33.33 µM): 105.2 % change from baseline | Peak width - 3D Mean ([2]; 33.33 µM): 0.4 % change from baseline | Peak-to-peak interval - 3D Mean ([2]; 33.33 µM): 38.9 % change from baseline | Area under the curve - 3D Mean ([2]; 100 µM): 97.3 % change from baseline | Peak Number—3D Mean ([2]; 100 µM): −34.9 % change from baseline | Peak amplitude - 3D Mean ([2]; 100 µM): 88.6 % change from baseline | Peak width - 3D Mean ([2]; 100 µM): 0.0 % change from baseline | Peak-to-peak interval - 3D Mean ([2]; 100 µM): −5.5 % change from baseline | Area under the curve - 3D Mean ([2]; 300 µM): 72.7 % change from baseline | Peak Number—3D Mean ([2]; 300 µM): −68.3 ** % change from baseline | Peak amplitude - 3D Mean ([2]; 300 µM): 56.5 % change from baseline | Peak width - 3D Mean ([2]; 300 µM): −12.2 % change from baseline | Peak-to-peak interval - 3D Mean ([2]; 300 µM): 75.9 % change from baseline | Free Cmax [3, 7]: 1000 to 10000 nM | Free Cmax [3, 8]: 1000 to 10000 nM

Clc1ccc2c(c1)C(N1CCNCC1)=Nc1ccccc1O2 [Amoxapine]
effect on peak number / Ca2+ neuronal oscillations, in words [1]: significantly reduced peak number | activation at 0.11 µM [1, 4]: 27.8% | activation at 0.11 µM ([1]; read-out: Peak Number—2D Mean): -5.2% | activation at 0.11 µM [1, 5]: 7.7% | activation at 0.11 µM ([1]; read-out: Peak width - 2D Mean): 22% | activation at 0.11 µM [1, 6]: 8.8% | activation at 0.33 µM [1, 4]: 25.3% | activation at 0.33 µM ([1]; read-out: Peak Number—2D Mean): 25.3% | activation at 0.33 µM [1, 5]: 12.7% | activation at 0.33 µM ([1]; read-out: Peak width - 2D Mean): 14.8% | activation at 0.33 µM [1, 6]: -7.8% | activation at 1 µM [1, 4]: 22.8% | activation at 1 µM ([1]; read-out: Peak Number—2D Mean): 12.5% | activation at 1 µM [1, 5]: -1.5% | activation at 1 µM ([1]; read-out: Peak width - 2D Mean): 31.7% | activation at 1 µM [1, 6]: -4.5% | activation at 3 µM [1, 4]: -40.8% | activation at 3 µM ([1]; read-out: Peak Number—2D Mean): -35.3% | activation at 3 µM [1, 5]: -20.7% | activation at 3 µM ([1]; read-out: Peak width - 2D Mean): -37.7% | activation at 3 µM [1, 6]: 56.7% | Area under the curve - 3D Mean ([2]; 0.11 µM): 122.7 % change from baseline | Peak Number—3D Mean ([2]; 0.11 µM): −10.1 % change from baseline | Peak amplitude - 3D Mean ([2]; 0.11 µM): 92.4 % change from baseline | Peak width - 3D Mean ([2]; 0.11 µM): 11.9 % change from baseline | Peak-to-peak interval - 3D Mean ([2]; 0.11 µM): 14.8 % change from baseline | Area under the curve - 3D Mean ([2]; 0.33 µM): 130.2 % change from baseline | Peak Number—3D Mean ([2]; 0.33 µM): −2.2 % change from baseline | Peak amplitude - 3D Mean ([2]; 0.33 µM): 101.9 % change from baseline | Peak width - 3D Mean ([2]; 0.33 µM): 12.5 % change from baseline | Peak-to-peak interval - 3D Mean ([2]; 0.33 µM): 7.1 % change from baseline | Area under the curve - 3D Mean ([2]; 1 µM): 124.0 % change from baseline | Peak Number—3D Mean ([2]; 1 µM): −10.8 % change from baseline | Peak amplitude - 3D Mean ([2]; 1 µM): 102.7 % change from baseline | Peak width - 3D Mean ([2]; 1 µM): 6.8 % change from baseline | Peak-to-peak interval - 3D Mean ([2]; 1 µM): 4.4 % change from baseline | Area under the curve - 3D Mean ([2]; 3 µM): 148.1 % change from baseline | Peak Number—3D Mean ([2]; 3 µM): −7.5 % change from baseline | Peak amplitude - 3D Mean ([2]; 3 µM): 105.1 % change from baseline | Peak width - 3D Mean ([2]; 3 µM): 21.0 % change from baseline | Peak-to-peak interval - 3D Mean ([2]; 3 µM): −6.6 % change from baseline | effect on peak number of oscillations, in words ([2]; 3D-cultured): did not significantly change the peak number | Free Cmax [3, 7]: 40 to 600 nM | Free Cmax [3, 8]: 40 to 600 nM

CC1(C)S[C@@H]2[C@H](NC(=O)[C@H](N)c3ccc(O)cc3)C(=O)N2[C@H]1C(=O)O [Amoxicillin]
activation at 0.11 µM [1, 4]: 38.3% | activation at 0.11 µM ([1]; read-out: Peak Number—2D Mean): -10.5% | activation at 0.11 µM [1, 5]: 19.3% | activation at 0.11 µM ([1]; read-out: Peak width - 2D Mean): 22.3% | activation at 0.11 µM [1, 6]: 27.3% | activation at 0.33 µM [1, 4]: 23.7% | activation at 0.33 µM ([1]; read-out: Peak Number—2D Mean): 8.3% | activation at 0.33 µM [1, 5]: 5% | activation at 0.33 µM ([1]; read-out: Peak width - 2D Mean): 25.7% | activation at 0.33 µM [1, 6]: 9.3% | activation at 1 µM [1, 4]: 45.8% | activation at 1 µM ([1]; read-out: Peak Number—2D Mean): 27.2% | activation at 1 µM [1, 5]: 8.3% | activation at 1 µM ([1]; read-out: Peak width - 2D Mean): 48% | activation at 1 µM [1, 6]: -16% | activation at 3 µM [1, 4]: 43% | activation at 3 µM ([1]; read-out: Peak Number—2D Mean): 16.2% | activation at 3 µM [1, 5]: 7.5% | activation at 3 µM ([1]; read-out: Peak width - 2D Mean): 47.7% | activation at 3 µM [1, 6]: -7.8% | Area under the curve - 3D Mean ([2]; 0.11 µM): 147.7 % change from baseline | Peak Number—3D Mean ([2]; 0.11 µM): −8.0 % change from baseline | Peak amplitude - 3D Mean ([2]; 0.11 µM): 136.9 % change from baseline | Peak width - 3D Mean ([2]; 0.11 µM): 4.7 % change from baseline | Peak-to-peak interval - 3D Mean ([2]; 0.11 µM): 12.1 % change from baseline | Area under the curve - 3D Mean ([2]; 0.33 µM): 145.7 % change from baseline | Peak Number—3D Mean ([2]; 0.33 µM): 1.4 % change from baseline | Peak amplitude - 3D Mean ([2]; 0.33 µM): 132.0 % change from baseline | Peak width - 3D Mean ([2]; 0.33 µM): 5.5 % change from baseline | Peak-to-peak interval - 3D Mean ([2]; 0.33 µM): 9.0 % change from baseline | Area under the curve - 3D Mean ([2]; 1 µM): 122.0 % change from baseline | Peak Number—3D Mean ([2]; 1 µM): 9.3 % change from baseline | Peak amplitude - 3D Mean ([2]; 1 µM): 130.1 % change from baseline | Peak width - 3D Mean ([2]; 1 µM): −4.5 % change from baseline | Peak-to-peak interval - 3D Mean ([2]; 1 µM): −5.5 % change from baseline | Area under the curve - 3D Mean ([2]; 3 µM): 125.7 % change from baseline | Peak Number—3D Mean ([2]; 3 µM): 18.3 % change from baseline | Peak amplitude - 3D Mean ([2]; 3 µM): 123.5 % change from baseline | Peak width - 3D Mean ([2]; 3 µM): 1.2 % change from baseline | Peak-to-peak interval - 3D Mean ([2]; 3 µM): −1.2 % change from baseline | Free Cmax [3, 7]: 3 to 32000 nM
